Patent US11345659B2, “Pipecolic esters for inhibition of the proteasome” (THE BOARD OF REGENTS OF THE UNIVERSY OF TEXAS SYSTEM, priority 2018, dated 2022)

How the values were obtained:
26 S proteasome = target: T1, 26 S proteasome (Homo sapiens, UniProt P25787+P25789); assay: 26 S proteasome challenged with mixture of three substrates (surrogate proteinase assay); format: biochemical; details: mixture of ChT-L, T-L and Casp-L substrates, 33.3 μM each; read-out: IC50, 26 S proteasome with substrates for all three peptidases
T1 construct: purified from erythrocytes; purchased Enzo Life Sciences, Inc. (Farmingdale, N.Y.); host or cells: human erythrocytes
Procedure: (§1) Human housekeeping 20 S and 26 S and complexes purified from erythrocytes were purchased from Enzo Life Sciences, Inc. (Farmingdale, N.Y.). The 1 mg/ml stock 20 S proteasome was diluted to 0.2 mg/ml working solution in 50 mM Tris/HCl, pH 8 containing 20% glycerol (dilution buffer). For the 26 S proteasome stock, the dilution buffer was supplemented with 2 mM ATP, 1 mM MgCl2, and 1 mM DTT (dithiothreitol). The ChT-L peptidase activity was measured as arbitrary intensity units of fluorescence emitted by 7-amino-4-methylcoumarin (AMC) released from the canonical model peptide substrate succinyl-LeuLeuValTyr-methylcoumarin (SucLLVY-MCA; Bachem Bioscience Inc., Philadelphia, Pa.), used at concentration of 100 μM. Free AMC (Sigma-Aldrich, St. Louis, Mo.) was used as the standard. The Rpt5 C-terminal peptide was synthesized (standard solid-phase peptide chemistry) and purified to at least 98% purity by GenScript (Piscataway, N.J.). The Rpt5 peptide and the peptide substrate were dissolved in dimethylsulfoxide (DMSO) and such stock solutions were stored at −20° C. The total concentration of DMSO in final reaction mixtures never exceeded 3% (vol/vol).
The reaction was carried out in 96-well plates, in 100 μL of reaction mixture, for 1 hour at 37° C. In the case of 20 S proteasome, the reaction mixture consisted of 45 mM Tris/HCl, pH 8, 100 mM KCl with premixed 10 μM Rpt5 peptide and 100 μM Suc-LLVY-MCA, to which 200 ng (nearly […]) of proteasome and desired concentration of tested compounds in 1 μL of DMSO were added. […] The reaction rates were calculated from a linear segment of kinetic curves constructed from measurements in 1-minutes intervals (Fluoroskan Ascent plate reader; Thermo Fisher Scientific Inc., Waltham, Mass.). Reaction rates were calculated using a linear fit executed by Slope Analyzer and Enzyme Kinetics applications launched within Origin Pro 2017 (OriginLab). […]

[1] = target: T2, latent core 20 S proteasome (Homo sapiens, UniProt P25787+P25789); assay: ChT-L peptidase activity of latent 20 S core; format: biochemical; details: no tRpt5 activation
T2 construct: purified from erythrocytes; purchased Enzo Life Sciences, Inc. (Farmingdale, N.Y.); host or cells: human erythrocytes
Procedure: as §1, with “The Rpt5 peptide and the peptide substrate were dissolved in dimethylsulfoxide (DMSO) and such stock solutions were stored at −20° C. The total concentration of DMSO in final reaction mixtures never exceeded 3% (vol/vol).” left out
The reaction was carried out in 96-well plates, in 100 μL of reaction mixture, for 1 hour at 37° C. […] The reaction rates were calculated from a linear segment of kinetic curves constructed from measurements in 1-minutes intervals (Fluoroskan Ascent plate reader; Thermo Fisher Scientific Inc., Waltham, Mass.). Reaction rates were calculated using a linear fit executed by Slope Analyzer and Enzyme Kinetics applications launched within Origin Pro 2017 (OriginLab). […]

COc1cc(CCCOC(=O)[C@@H]2CCCCN2C(=O)OCc2ccccc2)cc(OC)c1OC [Compound 3, 1-benzyl 2-(3-(3,4,5-trimethoxyphenyl)propyl) (S)-piperidine-1,2-dicarboxylate]
IC50 (26 S proteasome): 1200 nM | IC50 [1]: 2800 nM
